Reference: ChEMBL document CHEMBL3880392, “Tropane-derivatives, their preparation and use” (2002)

How the values were obtained:
Assay type in all cases: subcellular
[1] = biological target: Transporter (Rattus norvegicus) (UniProt F1LNR9); assay: Inhibition of re-uptake of [3H]noradrenaline at NET in Wistar rat hippocampal synaptosomes by liquid scintillation counting relative to untreated control; conditions: Hippocampus, concentration not given here
[2] = biological target: Sodium-dependent serotonin transporter (Rattus norvegicus) (UniProt P31652); assay: Inhibition of re-uptake of [3H]5-hydroxytryptamine at SERT in Wistar rat cortical synaptosomes by liquid scintillation counting relative to untreated control; conditions: concentration not given here
Sodium-dependent serotonin transporter (Rattus norvegicus), sequence (P31652 whole entry): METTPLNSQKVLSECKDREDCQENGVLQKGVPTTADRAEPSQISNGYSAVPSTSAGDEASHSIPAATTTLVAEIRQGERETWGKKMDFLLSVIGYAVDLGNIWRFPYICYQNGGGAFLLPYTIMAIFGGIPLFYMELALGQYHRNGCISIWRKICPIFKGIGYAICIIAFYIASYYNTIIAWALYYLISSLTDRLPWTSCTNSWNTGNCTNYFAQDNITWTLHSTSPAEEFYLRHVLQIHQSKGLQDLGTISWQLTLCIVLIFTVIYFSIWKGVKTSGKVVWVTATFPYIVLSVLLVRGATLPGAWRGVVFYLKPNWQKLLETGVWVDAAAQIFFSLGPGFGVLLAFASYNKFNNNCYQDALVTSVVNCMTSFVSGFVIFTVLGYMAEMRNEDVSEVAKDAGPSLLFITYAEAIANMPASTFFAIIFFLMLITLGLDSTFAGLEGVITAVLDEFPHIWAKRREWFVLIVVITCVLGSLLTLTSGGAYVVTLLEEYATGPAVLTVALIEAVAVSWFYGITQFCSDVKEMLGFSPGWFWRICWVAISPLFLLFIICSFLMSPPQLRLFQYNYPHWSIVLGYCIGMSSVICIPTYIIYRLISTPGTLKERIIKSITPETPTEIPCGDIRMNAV

[3] = biological target: Sodium-dependent dopamine transporter (Rattus norvegicus) (UniProt P23977); assay: Inhibition of re-uptake of [3H]dopamine at DAT in Wistar rat corpus striatum synaptosomes by liquid scintillation counting relative to untreated control; conditions: concentration not given here
Sodium-dependent dopamine transporter (Rattus norvegicus), sequence (P23977 whole entry): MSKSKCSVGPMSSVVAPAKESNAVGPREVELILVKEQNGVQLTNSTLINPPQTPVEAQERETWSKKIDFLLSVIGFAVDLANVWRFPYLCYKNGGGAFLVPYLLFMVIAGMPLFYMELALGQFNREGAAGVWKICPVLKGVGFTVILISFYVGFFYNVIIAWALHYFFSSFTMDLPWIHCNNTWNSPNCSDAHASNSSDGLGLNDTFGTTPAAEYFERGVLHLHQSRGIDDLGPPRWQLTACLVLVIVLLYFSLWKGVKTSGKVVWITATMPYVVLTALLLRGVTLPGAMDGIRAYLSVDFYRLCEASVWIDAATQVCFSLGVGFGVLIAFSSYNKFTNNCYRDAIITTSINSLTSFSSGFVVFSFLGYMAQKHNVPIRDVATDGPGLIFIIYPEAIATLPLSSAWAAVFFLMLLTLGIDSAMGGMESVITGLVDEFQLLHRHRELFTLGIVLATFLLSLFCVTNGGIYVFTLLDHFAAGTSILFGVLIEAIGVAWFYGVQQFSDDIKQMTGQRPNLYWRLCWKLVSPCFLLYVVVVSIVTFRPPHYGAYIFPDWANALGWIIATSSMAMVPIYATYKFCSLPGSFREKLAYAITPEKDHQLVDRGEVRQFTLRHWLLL

Measured: inhibition

Transporter (Rattus norvegicus), sequence (F1LNR9 as listed by the source): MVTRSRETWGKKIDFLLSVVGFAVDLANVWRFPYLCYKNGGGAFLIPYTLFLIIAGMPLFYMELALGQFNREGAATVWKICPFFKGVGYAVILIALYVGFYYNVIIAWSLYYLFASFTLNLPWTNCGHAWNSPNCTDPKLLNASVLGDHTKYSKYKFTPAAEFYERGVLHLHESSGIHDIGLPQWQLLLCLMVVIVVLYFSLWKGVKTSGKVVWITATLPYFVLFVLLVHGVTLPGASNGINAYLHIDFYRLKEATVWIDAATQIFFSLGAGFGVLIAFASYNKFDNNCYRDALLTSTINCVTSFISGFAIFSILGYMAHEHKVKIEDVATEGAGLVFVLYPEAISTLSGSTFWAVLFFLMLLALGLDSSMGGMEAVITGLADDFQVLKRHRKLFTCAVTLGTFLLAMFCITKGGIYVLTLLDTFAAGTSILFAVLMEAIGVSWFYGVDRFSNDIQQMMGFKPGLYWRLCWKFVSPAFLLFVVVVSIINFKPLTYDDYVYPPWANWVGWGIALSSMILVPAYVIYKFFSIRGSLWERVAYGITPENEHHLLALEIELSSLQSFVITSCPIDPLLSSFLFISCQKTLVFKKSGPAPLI

CN1[C@H]2CC[C@@H]1[C@H](CSc1ccccc1)[C@@H](c1ccc(Cl)c(Cl)c1)C2
25 to 75%: all assays above

CCOC[C@@H]1[C@@H](c2ccc(Cl)c(Cl)c2)C[C@@H]2CC[C@H]1N2C
25 to 75%: all assays above

COC[C@@H]1[C@@H](c2ccc(Cl)c(Cl)c2)C[C@@H]2CC[C@H]1N2C
25 to 75%: all assays above
